Source: article PMC5218480 (PLoS ONE, 2017)

System: MV-4-11 cells
Assay: Gene expression microarray analysis (Affymetrix PrimeView) and GSEA
Assay type: cell-based, human
Set-up: RFU PODN (11730768_x_at) / Fold change /veh PODN (11730768_x_at) / RFU LINC00158 (11744669_a_at) / Fold change /veh LINC00158 (11744669_a_at) / RFU DUSP10 (11751237_a_at) / Fold change /veh DUSP10 (11751237_a_at) / RFU ID3 (11757404_x_at) / Fold change /veh ID3 (11757404_x_at) / RFU PLEKHG5 (11737974_s_at) / Fold change /veh PLEKHG5 (11737974_s_at) / RFU LRRC4B (11730491_at) / Fold change /veh LRRC4B (11730491_at) / RFU GIMAP4 (11747438_a_at) / Fold change /veh GIMAP4 (11747438_a_at) / RFU KRT8 (11758183_x_at) / Fold change /veh KRT8 (11758183_x_at) / RFU CNN1 (11734310_a_at) / Fold change /veh CNN1 (11734310_a_at) / RFU VPS37D (11726825_at) / Fold change /veh VPS37D (11726825_at) / RFU C10orf10 (11716522_x_at) / Fold change /veh C10orf10 (11716522_x_at) / RFU KIR2DL2 /// KIR2DL4 /// KIR2DL5A /// KIR2DL5B /// KIR2DS1 /// KIR2DS2 /// KIR2DS3 /// KIR2DS4 /// KIR3DL3 /// KIR3DL3 /// KIR3DS1 (11738374_at) / Fold change /veh KIR2DL2 /// KIR2DL4 /// KIR2DL5A /// KIR2DL5B /// KIR2DS1 /// KIR2DS2 /// KIR2DS3 /// KIR2DS4 /// KIR3DL3 /// KIR3DL3 /// KIR3DS1 (11738374_at) / RFU C1QL1 (11718748_at) / Fold change /veh C1QL1 (11718748_at) / RFU TMPRSS4 (11747572_a_at) / Fold change /veh TMPRSS4 (11747572_a_at) / RFU HAMP (11756126_x_at) / Fold change /veh HAMP (11756126_x_at) / RFU RNFT2 (11725882_a_at) / Fold change /veh RNFT2 (11725882_a_at) / RFU NR4A2 (11747474_a_at) / Fold change /veh NR4A2 (11747474_a_at) / RFU ABCC12 (11746883_a_at) / Fold change /veh ABCC12 (11746883_a_at) / RFU TMEM136 (11760407_x_at) / Fold change /veh TMEM136 (11760407_x_at) / RFU CLDN22 /// WWC2 (11732394_at) / Fold change /veh CLDN22 /// WWC2 (11732394_at) / RFU HLA-DPB1 (11760878_x_at) / Fold change /veh HLA-DPB1 (11760878_x_at) / RFU SPINT1 (11716480_a_at) / Fold change /veh SPINT1 (11716480_a_at) / RFU GAP43 (11754022_s_at) / Fold change /veh GAP43 (11754022_s_at) / RFU A4GNT (11735810_at) / Fold change /veh A4GNT (11735810_at) / RFU PRB3 (11715151_x_at) / Fold change /veh PRB3 (11715151_x_at) / RFU TUBB4B (11761932_at) / Fold change /veh TUBB4B (11761932_at) / RFU CAPN14 (11732068_a_at) / Fold change /veh CAPN14 (11732068_a_at) / RFU TMCC2 (11721928_a_at) / Fold change /veh TMCC2 (11721928_a_at) / RFU IRGQ (11745062_a_at) / Fold change /veh IRGQ (11745062_a_at) / RFU FAM174B (11720279_a_at) / Fold change /veh FAM174B (11720279_a_at) / RFU TMPRSS4 (11748680_a_at) / Fold change /veh TMPRSS4 (11748680_a_at) / RFU FAM212B (11763350_a_at) / Fold change /veh FAM212B (11763350_a_at) / RFU PLEKHG5 (11743358_a_at) / Fold change /veh PLEKHG5 (11743358_a_at) / RFU ZSCAN30 (11745921_a_at) / Fold change /veh ZSCAN30 (11745921_a_at) / RFU CMKLR1 (11741424_a_at) / Fold change /veh CMKLR1 (11741424_a_at) / RFU LOC101060620 /// MAPK8IP1 (11723275_at) / Fold change /veh LOC101060620 /// MAPK8IP1 (11723275_at) / RFU SPTSSB (11747773_x_at) / Fold change /veh SPTSSB (11747773_x_at) / RFU PRSS12 (11739890_at) / Fold change /veh PRSS12 (11739890_at) / RFU BIN1 (11741810_x_at) / Fold change /veh BIN1 (11741810_x_at) / RFU WNT11 (11732464_a_at) / Fold change /veh WNT11 (11732464_a_at) / RFU C10orf10 (11716521_a_at) / Fold change /veh C10orf10 (11716521_a_at) / RFU C5orf56 (11738089_at) / Fold change /veh C5orf56 (11738089_at) / RFU CYB561 (11721691_x_at) / Fold change /veh CYB561 (11721691_x_at) / RFU ANKRD19P (11752326_a_at) / Fold change /veh ANKRD19P (11752326_a_at) / RFU OR2T12 /// OR2T33 /// OR2T8 (11738714_s_at) / Fold change /veh OR2T12 /// OR2T33 /// OR2T8 (11738714_s_at) / RFU VCAN (11748164_a_at) / Fold change /veh VCAN (11748164_a_at) / RFU JSRP1 (11732532_at) / Fold change /veh JSRP1 (11732532_at) / RFU KRTAP10-11 (11738290_x_at) / Fold change /veh KRTAP10-11 (11738290_x_at) / RFU MYO3A (11730013_a_at) / Fold change /veh MYO3A (11730013_a_at) / RFU EBF3 (11725865_a_at) / Fold change /veh EBF3 (11725865_a_at) / RFU CAMK2N1 (11719241_x_at) / Fold change /veh CAMK2N1 (11719241_x_at) / RFU C5orf56 (11738088_a_at) / Fold change /veh C5orf56 (11738088_a_at) / RFU OLFML3 (11715873_a_at) / Fold change /veh OLFML3 (11715873_a_at) / RFU LOC100653217 /// NTM (11731650_a_at) / Fold change /veh LOC100653217 /// NTM (11731650_a_at) / RFU MAPK11 (11762145_a_at) / Fold change /veh MAPK11 (11762145_a_at) / RFU FIZ1 (11724087_x_at) / Fold change /veh FIZ1 (11724087_x_at) / RFU OASL (11726364_x_at) / Fold change /veh OASL (11726364_x_at) / RFU SOX15 (11748057_x_at) / Fold change /veh SOX15 (11748057_x_at) / RFU CD79A (11719716_a_at) / Fold change /veh CD79A (11719716_a_at) / RFU HIST1H1D (11736915_at) / Fold change /veh HIST1H1D (11736915_at) / RFU CASKIN2 (11723855_a_at) / Fold change /veh CASKIN2 (11723855_a_at) / RFU LOC730098 (11760151_x_at) / Fold change /veh LOC730098 (11760151_x_at) / RFU OR4N2 (11742367_at) / Fold change /veh OR4N2 (11742367_at) / RFU PRRT2 (11749266_a_at) / Fold change /veh PRRT2 (11749266_a_at) / RFU SNX32 (11753110_a_at) / Fold change /veh SNX32 (11753110_a_at) / RFU CDHR5 (11726645_a_at) / Fold change /veh CDHR5 (11726645_a_at) / RFU RCAN1 (11760418_a_at) / Fold change /veh RCAN1 (11760418_a_at) / RFU FAM167A (11723789_a_at) / Fold change /veh FAM167A (11723789_a_at) / RFU FAM26E (11764081_at) / Fold change /veh FAM26E (11764081_at) / RFU ISYNA1 (11749810_s_at) / Fold change /veh ISYNA1 (11749810_s_at) / RFU ACY1 (11761880_at) / Fold change /veh ACY1 (11761880_at) / RFU 11764098_at / Fold change /veh 11764098_at / RFU SAMD14 (11745864_x_at) / Fold change /veh SAMD14 (11745864_x_at) / RFU NPB (11741838_a_at) / Fold change /veh NPB (11741838_a_at) / RFU TMPRSS6 (11731388_a_at) / Fold change /veh TMPRSS6 (11731388_a_at) / RFU KRTAP10-2 (11738614_at) / Fold change /veh KRTAP10-2 (11738614_at) / RFU ARHGAP8 /// PRR5-ARHGAP8 (11727945_x_at) / Fold change /veh ARHGAP8 /// PRR5-ARHGAP8 (11727945_x_at) / RFU KRTAP5-7 /// NADSYN1 (11734609_at) / Fold change /veh KRTAP5-7 /// NADSYN1 (11734609_at) / RFU RASL12 (11751679_a_at) / Fold change /veh RASL12 (11751679_a_at) / RFU CDKN2B (11736163_a_at) / Fold change /veh CDKN2B (11736163_a_at) / RFU PRF1 (11729649_at) / Fold change /veh PRF1 (11729649_at) / RFU, ZNF638 /// ZNF638-IT1 / Fold change vs veh, ZNF638 /// ZNF638-IT1 / RFU, PANK3 / Fold change vs veh, PANK3 / RFU, SH3YL1 / Fold change vs veh, SH3YL1 / RFU, ZEB2 / Fold change vs veh, ZEB2 / RFU, NRIP1 / Fold change vs veh, NRIP1 / RFU, PTTG1IP / Fold change vs veh, PTTG1IP / RFU, CAPN2 / Fold change vs veh, CAPN2 / RFU, MED14 / Fold change vs veh, MED14 / RFU, SNORA58 / Fold change vs veh, SNORA58 / RFU, C1orf63 / Fold change vs veh, C1orf63 / RFU, LRRFIP1 / Fold change vs veh, LRRFIP1 / RFU, NDUFAF7 / Fold change vs veh, NDUFAF7 / RFU, SLC12A2 / Fold change vs veh, SLC12A2 / RFU, IBTK / Fold change vs veh, IBTK / RFU, ESF1 / Fold change vs veh, ESF1 / Fold change vs veh, TMEM50B / RFU, TAOK1 / Fold change vs veh, TAOK1 / RFU, ACBD3 / Fold change vs veh, ACBD3 / RFU, TMA16 / Fold change vs veh, TMA16 / RFU, RWDD3 / Fold change vs veh, RWDD3 / RFU, BCAT1 / Fold change vs veh, BCAT1 / RFU, EDEM3 / Fold change vs veh, EDEM3 / RFU, TMEM33 / Fold change vs veh, TMEM33 / RFU, WDR75 / Fold change vs veh, WDR75 / RFU, AHCTF1 / Fold change vs veh, AHCTF1 / RFU, TFRC / Fold change vs veh, TFRC / RFU, ZDHHC17 / Fold change vs veh, ZDHHC17 / RFU, NOM1 / Fold change vs veh, NOM1 / RFU, ARL8B / Fold change vs veh, ARL8B / RFU, ZBTB11 / Fold change vs veh, ZBTB11 / RFU, TAMM41 / Fold change vs veh, TAMM41 / RFU, KIAA1704 /// LOC100996395 / Fold change vs veh, KIAA1704 /// LOC100996395 / RFU, ING1 / Fold change vs veh, ING1 / RFU, TRMT61B / Fold change vs veh, TRMT61B / RFU, FUBP3 / Fold change vs veh, FUBP3 / RFU, TP53 / Fold change vs veh, TP53 / RFU, TNKS2 / Fold change vs veh, TNKS2 / RFU, ZFP14 / Fold change vs veh, ZFP14 / RFU, ACTR2 / Fold change vs veh, ACTR2 / RFU, PPP3R1 / Fold change vs veh, PPP3R1 / RFU, PIK3R1 / Fold change vs veh, PIK3R1 / RFU, HNRNPA1 / Fold change vs veh, HNRNPA1 / RFU, RNF170 / Fold change vs veh, RNF170 / RFU, ZNF28 / Fold change vs veh, ZNF28 / RFU, RNGTT / Fold change vs veh, RNGTT / RFU, OGT / Fold change vs veh, OGT / RFU, BRD1 / Fold change vs veh, BRD1 / RFU, MARS / Fold change vs veh, MARS / RFU, ZNF655 / Fold change vs veh, ZNF655 / RFU, FAHD1 / Fold change vs veh, FAHD1 / RFU, BDP1 / Fold change vs veh, BDP1 / RFU, LRRCC1 / Fold change vs veh, LRRCC1 / RFU, ARID1A / Fold change vs veh, ARID1A / RFU, ZNF146 / Fold change vs veh, ZNF146 / RFU, ZNF330 / Fold change vs veh, ZNF330 / RFU, GPN3 / Fold change vs veh, GPN3 / RFU, C9orf123 / Fold change vs veh, C9orf123 / RFU, N4BP2L2 / Fold change vs veh, N4BP2L2 / RFU, ARFIP1 / Fold change vs veh, ARFIP1 / RFU, FAM179B / Fold change vs veh, FAM179B / RFU, BCL10 / Fold change vs veh, BCL10 / RFU, UHRF1BP1L / Fold change vs veh, UHRF1BP1L / RFU, BET1 / Fold change vs veh, BET1 / RFU, CNOT2 / Fold change vs veh, CNOT2 / RFU, ZNF268 / Fold change vs veh, ZNF268 / Fold change vs veh, ZNF507 / RFU, DGCR2 / Fold change vs veh, DGCR2 / RFU, WDSUB1 / Fold change vs veh, WDSUB1 / Fold change vs veh, HSP90B1 /// MIR3652 / RFU, ADSS / Fold change vs veh, ADSS / RFU, GK / Fold change vs veh, GK / RFU, ZNF148 / Fold change vs veh, ZNF148 / RFU, TAF9 / Fold change vs veh, TAF9 / RFU, SLC1A5 / Fold change vs veh, SLC1A5 / RFU, SLMO2 / Fold change vs veh, SLMO2 / RFU, ABCC4 / Fold change vs veh, ABCC4 / RFU, LOC101060439 /// RAP1B / Fold change vs veh, LOC101060439 /// RAP1B / RFU, RFX7 / Fold change vs veh, RFX7 / RFU, GTPBP10 / Fold change vs veh, GTPBP10 / RFU, CNEP1R1 / Fold change vs veh, CNEP1R1 / RFU, BIVM-ERCC5 /// ERCC5 / Fold change vs veh, BIVM-ERCC5 /// ERCC5 / RFU, ILF3 / Fold change vs veh, ILF3 / RFU 11762660_at / Fold change /veh 11762660_at / RFU VCAN (11757783_s_at) / Fold change /veh VCAN (11757783_s_at) / RFU DDX43 (11728927_at) / Fold change /veh DDX43 (11728927_at) / RFU KRT8 (11758188_x_at) / Fold change /veh KRT8 (11758188_x_at) / RFU NKD1 (11759106_at) / Fold change /veh NKD1 (11759106_at) / RFU SRD5A1 (11742802_a_at) / Fold change /veh SRD5A1 (11742802_a_at) / RFU TPSAB1 /// TPSB2 (11721975_s_at) / Fold change /veh TPSAB1 /// TPSB2 (11721975_s_at) / RFU GSTM3 (11746129_a_at) / Fold change /veh GSTM3 (11746129_a_at) / RFU IL23R (11737362_x_at) / Fold change /veh IL23R (11737362_x_at) / RFU TMEM51 (11727254_a_at) / Fold change /veh TMEM51 (11727254_a_at) / RFU PIWIL2 (11732686_x_at) / Fold change /veh PIWIL2 (11732686_x_at) / RFU ORM1 (11744905_x_at) / Fold change /veh ORM1 (11744905_x_at) / RFU CCDC152 (11743942_at) / Fold change /veh CCDC152 (11743942_at) / RFU ECM1 (11717891_a_at) / Fold change /veh ECM1 (11717891_a_at) / RFU IL23R (11748794_a_at) / Fold change /veh IL23R (11748794_a_at) / RFU TNFAIP8L3 (11732012_x_at) / Fold change /veh TNFAIP8L3 (11732012_x_at) / RFU MBOAT4 (11741988_at) / Fold change /veh MBOAT4 (11741988_at) / RFU 11764193_at / Fold change /veh 11764193_at / RFU TMEM53 (11763286_at) / Fold change /veh TMEM53 (11763286_at) / RFU MAGEB2 (11727129_at) / Fold change /veh MAGEB2 (11727129_at) / RFU TMEM200A (11744735_a_at) / Fold change /veh TMEM200A (11744735_a_at) / RFU CCDC152 (11751479_a_at) / Fold change /veh CCDC152 (11751479_a_at) / RFU FAM211A (11726209_a_at) / Fold change /veh FAM211A (11726209_a_at) / RFU RGS16 (11746705_a_at) / Fold change /veh RGS16 (11746705_a_at) / RFU VCAN (11755009_s_at) / Fold change /veh VCAN (11755009_s_at) / RFU RHOB (11743442_s_at) / Fold change /veh RHOB (11743442_s_at) / RFU RGS16 (11720943_a_at) / Fold change /veh RGS16 (11720943_a_at) / RFU RGS16 (11720944_at) / Fold change /veh RGS16 (11720944_at) / RFU, VPS4B / Fold change vs veh, VPS4B / RFU, CREB1 / Fold change vs veh, CREB1 / RFU, DNAJC13 / Fold change vs veh, DNAJC13 / RFU, GNAQ / Fold change vs veh, GNAQ / RFU, CDK5R1 / Fold change vs veh, CDK5R1 / RFU, ZRANB3 / Fold change vs veh, ZRANB3 / RFU, CUL4A / Fold change vs veh, CUL4A / RFU, CCNY / Fold change vs veh, CCNY / RFU, UFL1 / Fold change vs veh, UFL1 / RFU, COG3 / Fold change vs veh, COG3 / RFU, DIAPH2 / Fold change vs veh, DIAPH2 / RFU, SKA2 / Fold change vs veh, SKA2 / RFU, AFF3 / Fold change vs veh, AFF3 / RFU, LMF1 / Fold change vs veh, LMF1 / RFU, IPO11 / Fold change vs veh, IPO11 / RFU, DFFB / Fold change vs veh, DFFB / RFU, FOXP1 / Fold change vs veh, FOXP1 / RFU, CARD8 / Fold change vs veh, CARD8 / RFU, STRN3 / Fold change vs veh, STRN3 / RFU, ADK / Fold change vs veh, ADK / RFU, RASSF2 / Fold change vs veh, RASSF2 / RFU, WIPF1 / Fold change vs veh, WIPF1 / RFU, LARP1B / Fold change vs veh, LARP1B / RFU, RASA1 / Fold change vs veh, RASA1 / RFU, RB1 / Fold change vs veh, RB1 / RFU, PPFIA1 / Fold change vs veh, PPFIA1 / RFU, MAT2A / Fold change vs veh, MAT2A / RFU, CCT5 / Fold change vs veh, CCT5 / RFU, WDR92 / Fold change vs veh, WDR92 / RFU, CUX1 / Fold change vs veh, CUX1 / RFU, TTC7A / Fold change vs veh, TTC7A / RFU, TMEM135 / Fold change vs veh, TMEM135 / RFU, DEPTOR / Fold change vs veh, DEPTOR / RFU, CPM / Fold change vs veh, CPM / RFU, DNAJB6 / Fold change vs veh, DNAJB6 / RFU, CACNA2D3 / Fold change vs veh, CACNA2D3 / RFU, DTX4 / Fold change vs veh, DTX4 / RFU, TFCP2 / Fold change vs veh, TFCP2 / RFU, GMCL1 /// GMCL1P1 / Fold change vs veh, GMCL1 /// GMCL1P1 / RFU, AEBP2 / Fold change vs veh, AEBP2 / RFU, SNHG1 /// SNORD22 /// SNORD25 /// SNORD26 /// SNORD27 /// SNORD28 /// SNORD29 /// SNORD31 / Fold change vs veh, SNHG1 /// SNORD22 /// SNORD25 /// SNORD26 /// SNORD27 /// SNORD28 /// SNORD29 /// SNORD31 / Fold change (Aza/veh), C12orf56 (ProbeSet 11735607_a_at) / Fold change (ACY-1035/veh), C12orf56 (ProbeSet 11735607_a_at) / Fold change (Aza/veh), FGFR1OP (ProbeSet 11751329_s_at) / Fold change (ACY-1035/veh), FGFR1OP (ProbeSet 11751329_s_at) / Fold change (Aza/veh), VPS36 (ProbeSet 11739960_a_at) / Fold change (ACY-1035/veh), VPS36 (ProbeSet 11739960_a_at) / RFU SYPL1 (11715823_x_at) / Fold change /veh SYPL1 (11715823_x_at) / RFU IGFBP7 (11715501_s_at) / Fold change /veh IGFBP7 (11715501_s_at) / RFU REEP3 (11722064_at) / Fold change /veh REEP3 (11722064_at) / RFU IGLL1 (11728026_x_at) / Fold change /veh IGLL1 (11728026_x_at): dose or concentration left out as unconfirmed
Conditions: ProbeSet 11717914_a_at; LIST B

`Nc1ncn([C@@H]2O[C@H](CO)[C@@H](O)[C@H]2O)c(=O)n1` [azacitidine] was tested, and the “Fold change vs veh, BIVM-ERCC5 /// ERCC5” value was 0.92.
